Measured values published in patent US20250283871A1, “COMPOSITIONS AND METHODS FOR MODULATING THE INTERACTION BETWEEN SS18-SSX FUSION ONCOPROTEIN AND NUCLEOSOMES” (Dana-Farber Cancer Institute, Inc., priority 2020, published 2025).

Tests used:
[1] = system: recombinant mononucleosome; test: ATPase assay (ADP-Glo); format: biochemical; details: 0-40 min
Experimental: ATPase consumption assays were performed using the ADP-Glo Kinase Assay kit (Promega). The same conditions as the REAA nucleosome remodeling assay described above were used. Following incubation with desired substrates for 40 min at 37° C., 1× volume of ADP-Glo Reagent was used to quench the reaction and incubated at RT for 40 min. 2× volume of the Kinase Detection Reagent was then added and incubated at RT for 1 h. Luminescence readout was recorded. Substrates used for this assay were purified recombinant mononucleosome (EpiDyne Nucleosome Remodeling Assay Substrate ST601-GATC1, EpiCypher, Cat #16-4101). Nuclear extract material was used at 150ug for each ARID1A-IP using ARID1A antibody (Cell Signaling, Cat #12354S).

[2] = system: nucleosomes; test: Restriction enzyme accessibility assay (REAA) nucleosome remodeling assay; format: biochemical; details: 37 degrees C, 0-40 min
Experimental: SMARCA4 (BRG1) levels of the ammonium sulfate nuclear extracts were normalized via BCA protein quantification and Silver Stain analyses for HA-SS18 and HA-SS18-SSX conditions. Protein was diluted for final reaction concentration of 150 μg/mL in REAA buffer (20 mM HEPES, pH 8.0, 50 mM KCl, 5 mM MgCl2) containing 0.1 mg/mL BSA, 1 mM DTT, 20 nM nucleosomes (EpiDyne Nucleosome Remodeling Assay Substrate ST601-GATC1, EpiCypher). The REAA mixture was incubated at 37° C. for 10 min, and reaction was initiated using 1-2 mM ATP (Ultrapure ATP, Promega) and 0.005 U/mL DpnJJ Restriction Enzyme (New England Biolabs). The REAA reaction mixture was quenched with 20-24 mM EDTA and placed on ice. Proteinase K (Ambion) was added at 100 mg/mL for 30-60 min, followed by either AMPure bead DNA purification and D1000 HS DNA ScreenTape Analysis (Agilent) or mixing with GelPilot® Loading Dye (QIAGEN) and loading onto 8% TBE gel (Novex 8% TBE Gels, Thermo Fisher). TBE gels were stained with either SYBR®-Safe (Invitrogen) or Syto®-60 Red Fluorescent Nucleic Acid Stain (Invitrogen), followed by imaging with UV light on an Alpha Innotech AlphaImager™ 2200 and/or with 652 nm light excitation on a Li-Cor Odyssey® CLx imaging system (LI-COR).

[3] = system: H2A K119Ub-modified nucleosomes; test: Pull down of endogenous HA-SS18- or HA-SS18-SSX-bound BAF complexes with WT or H2A K119Ub-modified nucleosomes; format: binding; details: endogenously purified complexes
Experimental: Difference is the score calculated between SYO1 (SS18-SSX+) cells and SW982 cells (negative for fusion, histologic mimic). mSWI/SNF, PRC1, PRC2 members are shown. […] H3 immunoblot is used for assessment of nucleosome binding to GST-SSX. […] SMARCA4 and H3 immunoblots are shown. FIG. 11G has two panels. […] Peptides were incubated −/+presence of USP2 treatment. Error bars=st.dev. […] H3 immunoblot is used for assessment of nucleosome binding to GST-SSX. […] Data for GST-SSX with WT nucleosomes and H2A K119Ub nucleosomes are shared between FIG. 11E.
SS cell lines containing the SS18-SSX fusion oncoprotein are highlighted in red. […] Difference is the score calculated between SYO1, Yamato-SS, SCS241 (SS18-SSX+) cells and SW982 cells (negative for fusion, histologic mimic). Blue indicates enriched for dependency. mSWI/SNF, PRC1, PRC2 members are shown. […] Synovial sarcoma cell lines are indicated in pink; all other cell lines are represented in gray. […] (Project DRIVE; available on the World Wide Web at oncologynibr.shinyapps.io/drive/). SS cell lines containing the SS18-SSX fusion oncoprotein are highlighted in red. […] H3 immunoblot is used for assessment of nucleosome binding to GST-SSX. […] SMARCA4 and H3 immunoblots are shown. […] Identified proteins labeled (Left). WB of the samples on the right indicating presence of histone H3 (Right).

[4] = system: BAF complex subunits and histone proteins; test: Mass spectrometry proteomics of purified HA-SS18 WT and HA-SS18-SSX1 complexes (Tables 5A-5E); design: species or system human; details: MS of HA purifications
Experimental: Confluent plates were scraped to remove cells and cells were washed with PBS. Cell suspension was spun down by centrifugation at 3000 rpm for 5 minutes at 4° C. and pellets were resuspended in hypotonic buffer (10 mM Tris HCl pH 7.5, 10 mM KCl, 1.5 mM MgCL2, 1 mM DTT, 1 mM PMSF) and incubated on ice for 5 minutes. Following incubation, cell suspension was spun down by centrifugation at 5000 rpm for 5 minutes at 4° C., and pellets were resuspended in 5× volume of fresh hypotonic buffer (with protease inhibitor cocktail, Roche C756U27) and then cells were homogenized using a Dounce homogenizer (glass). Cell suspension was layered onto hypotonic buffer sucrose cushion made with 30% sucrose w/v, spun down by centrifugation at 5000 rpm for 1 hour at 4° C. followed by removal of the cytosol-containing layer. The nuclei containing pellets were resuspended in high salt buffer (50 mM Tris HCl pH 7.5, 300 mM KCl, 1 mM MgCL2, 1 mM EDTA, 1 mM, 1% NP40, 1 mM DTT, 1 mM PMSF and protease inhibitor cocktail) and then the homogenate rotated for 1 hour at 4° C. Homogenates were then spun down by centrifugation at 20,000 rpm for 1 hour at 4° C. in a SW32Ti rotor (Beckman Coulter). The soluble proteins, consisting of the nuclear extract (NE) fraction, was separated from the insoluble chromatin pellet, consisting of the chromatin (CHR) fraction. […]

[5] = system: histone proteins; test: Purification of mSWI/SNF (BAF) complexes from NE and CHR fractions, colloidal blue staining; design: species or system human
Experimental: Stable HEK293T cell lines expressing by lentiviral infection HA-SS18 WT or HA-SS18-SSX1 were grown in 150 mm dishes. Complexes were purified using methods previously described with a few modifications (Mashtalir et al. (2014) Mol. Cell 54:392-406). Confluent plates were scraped to remove cells and cells were washed with PBS. Cell suspension was spun down by centrifugation at 3000 rpm for 5 minutes at 4° C. and pellets were resuspended in hypotonic buffer (10 mM Tris HCl pH 7.5, 10 mM KCl, 1.5 mM MgCL2, 1 mM DTT, 1 mM PMSF) and incubated on ice for 5 minutes. Following incubation, cell suspension was spun down by centrifugation at 5000 rpm for 5 minutes at 4° C., and pellets were resuspended in 5× volume of fresh hypotonic buffer (with protease inhibitor cocktail, Roche C756U27) and then cells were homogenized using a Dounce homogenizer (glass). Cell suspension was layered onto hypotonic buffer sucrose cushion made with 30% sucrose w/v, spun down by centrifugation at 5000 rpm for 1 hour at 4° C. followed by removal of the cytosol-containing layer. The nuclei containing pellets were resuspended in high salt buffer (50 mM Tris HCl pH 7.5, 300 mM KCl, 1 mM MgCL2, 1 mM EDTA, 1 mM, 1% NP40, 1 mM DTT, 1 mM PMSF and protease inhibitor cocktail) and then the homogenate rotated for 1 hour at 4° C. […]

[6] = system: unmodified or H2A K119Ub-modified nucleosomes; test: Fluorescence polarization assay; format: binding; details: H2A K119Ub versus unmodified nucleosomes

Substance	ATPase activity [1]	remodeling efficiency [2]	binding of H2A K119Ub-modified versus unmodified nucleosomes by BAF complexes [3]	peptides corresponding to the H2A K119Ub mark captured [4]	core histone proteins captured [5]	binding affinity by fluorescence polarization [6]
SS18-SSX-bound BAF complexes: BAF complexes purified via HA-tagged SS18-SSX expressed in HEK-293T cells	slightly lower than that of WT SS18-bound complexes	slightly lower than that of WT SS18-bound complexes	enriched for binding of recombinant H2A K119Ub-modified nucleosomes over unmodified nucleosomes	captured only in the purifications of SS18-SSX-bound complexes	captured near-stoichiometric amounts of core histone proteins H2A, H2B, H3, and H4	–
fluoro-labeled SSX: fluorescently-labeled SSX1 (78aa), in place of GST tag	–	–	–	–	–	higher binding affinity to H2A K119Ub-decorated nucleosomes compared to unmodified nucleosomes
